{"source": "patent US5292505A", "about": "“Sulphated vinyl polymer in composition for treating retroviral infections” (Stichting Rega VZW, priority 1989, dated 1994)", "origin": "cited, not measured here", "key": {"[1]": {"tested_on": "Molt-4 cells co-cultured with HIV-1-infected HUT-78 cells", "settings": "statement without own test"}, "AIDS": {"tested_on": "AIDS", "settings": "AIDS patients, Fischl et al"}}}
{"smiles": "Cc1cn([C@H]2C[C@H](N=[N+]=[N-])[C@@H](CO)O2)c(=O)[nH]c1=O", "note": "[azidothymidine, 3'-azido-2',3'-dideoxythymidine]", "values": [{"measurement": "inhibition of giant cell formation", "setting": "[1]", "value": "does not show such effect"}, {"measurement": "clinical effectiveness", "setting": "AIDS", "value": "clinically effective"}]}
